Non-standard residues stand in square brackets, D forms with d. No end group written: not given here.
How the values were obtained:
[1] = tested on: guinea pig ileum longitudinal muscle with adhering myenteric plexus; assay: Guinea pig ileum test (inhibition of electrically induced twitch of longitudinal muscle strips); format: cell-based; conditions: ratio of IC50 of reference Met^5-enkephalin to IC50 of test compound in the same preparation, averaged (N=4); reference given as 100
Description: Adult male guinea pigs (Charles River, Hartley strain) weighing 300-500 g. are decapitated, and the terminal ileum is exposed by reflecting the overlying cecum, severed at the ileocecal juncture, and removed while cutting the mesenteric attachments to avoid excessive traction on the tissue. The ileum (about 30 cm. in length) is transferred to a beaker containing warm modified Krebs-Henseleit solution (118 mM sodium chloride, 4.75 mM potassium chloride, 2.54 mM calcium chloride, 1.19 mM potassium dihydrogen phosphate, 1.2 mM magnesium sulfate, 25 mM sodium bicarbonate, 11 mM glucose, 20 μM choline chloride and 0.125 μM pyrilamine maleate). The terminal (aboral) portion (about 10 cm, in length) is discarded, and segments (3-4 cm. in length) are cut from the remainder and gently slid onto a glass rod (5-6 mm. in diameter) and arranged so that the mesenteric attachment is in a straight line. A cotton swab moistened in the solution is then carefully used to separate the longitudinal muscle from the underlying circular muscle. The longitudinal muscle and adhering myenteric plexus is then gently removed from the remaining tissue with forceps.
Strips of thus prepared longitudinal muscle are mounted in a double-jacketed organ bath (5 ml.) under tension (1.0 g.), connected to isometric transducers (Grass FT 0.03), bathed in the modified Krebs-Henseleit solution described above, aerated with oxygen-carbon dioxide (95:5) and maintained at 37° C.
Stimulators (Grass S-44) are set to deliver repetitive, monophasic square wave field stimulation (supramaximal voltage, 0.10 Hz., 0.25 msec. duration) through platinum ring electrodes at the top and bottom of the bath. Regular contractions of the muscle, which result from electrically-induced liberation of acetylcholine from postganglionic parasympathetic nerves, are recorded on a polygraph (Grass model 5). Following tissue equilibration (45-60 min.) and repeated washing (every 10 min.) an aqueous solution of a reference or test compound is added to the bath in a microliter volume (1.25-250 μl) and reductions in muscle twitch height are recorded. More compound can be added […] first washing the preparation.
From the results a half-maximal inhibitory concentration (IC50) value for the compound is computed by regression analysis of a linear plot of logarithm of concentration against percent of inhibition of twitch height (probits). The ratio of the IC50 value of a reference compound to that of a test compound tested in the same preparation is the molar potency ratio. At least four preparations are tested simultaneously (N=4), and the resulting molar potency ratios are averaged.
The following results were obtained using the examples as test compounds and Met^5 -enkephalin as the reference compound: […]

[2] = tested on: guinea pig ileum longitudinal muscle with adhering myenteric plexus; conditions: Vavrek et al., Abstract P-76, 1981; cited from earlier work

D,L-N-(3-methylbutyl)-2-[(L-tryosyl-D-alanyl)amino]benzenepentanamide [Example 7]
Average Molar Potency Ratio [1]: 5

CC(C)CCNC(=O)[C@H](Cc1ccccc1)NC(=O)[C@@H](C)NC(=O)[C@@H](N)Cc1ccc(O)cc1 [Example 1, L-tyrosyl-D-alanyl-N-(3-methylbutyl)-L-phenylalaninamide]
Average Molar Potency Ratio [1]: 25

CC(C)CCN(CCc1ccccc1)C(=O)[C@H](Cc1ccccc1)NC(=O)[C@@H](C)NC(=O)[C@@H](N)Cc1ccc(O)cc1 [Example 2, L-tyrosyl-D-alanyl-N-(3-methylbutyl)-N-(2-phenylethyl)-L-phenylalaninamide]
Average Molar Potency Ratio [1]: 6

Tyr-[dA]-Phe-NH2
activity as % of Met-enkephalin on the stimulated guinea pig ileum [2]: 25%

CC(C)CCNC(=O)[C@H](Cc1ccccc1)NC(=O)[C@@H](CN(C)C)NC(=O)[C@@H](N)Cc1ccc(O)cc1 [Example 3, L-tyrosyl-3-(dimethylamino)-D-alanyl-N-(3-methylbutyl)-L-phenylalaninamide]
Average Molar Potency Ratio [1]: 5

Met^5 -enkephalin [reference compound]
Average Molar Potency Ratio [1]: 100
